The values below come from a melting point compilation (Tetko et al.; mined from patent text by program, amines drawn as free bases though some values may be those of a salt).

The structures appear in SMILES notation. Residues, ends and D or L forms follow the SMILES beside them. *: point of attachment. PhAc = O=C(Cc1ccccc1)*; NHNH2 = NN* A value given as a limit tells only on which side of the number the result lay.

In turn, `O=C(O)COc1ccc2c(-c3ccccc3)noc2c1Cl` registered a melting point of 219 to 221 °C. With `CNc1c(C)c(C)c(OC(C)=O)c(C)c1N` the figure was 113 to 116 °C.

Consider `CS(=O)(=O)c1ccc(Oc2ccc([N+](=O)[O-])cc2[N+](=O)[O-])cc1`, for which the melting point lay in the range of 176 to 177 °C. With `CC1(C)CCC(=O)Nc2cc(OCCCCCN3CCN(c4cccc(Cl)c4Cl)CC3)ccc21` the figure was 128 to 130 °C. Consider `CC(C)n1nc(-c2nc(C#Cc3ccccn3)c(N)nc2-c2ccccc2)ccc1=O`, for which the melting point was in the range of 246 to 247 °C. With `CCOC(=O)c1c(Nc2cc(F)ccc2[N+](=O)[O-])sc2cc(C)ccc12` the figure was 147 to 149 °C; with `CC(C)C(NC(=O)C(F)(F)F)C(=O)O` (centres undefined), 88 to 89 °C; with `CC(=O)Nc1c(-c2ccc(Cl)cc2)c2ccccc2n1C`, 196 to 197 °C. Regarding `CC1(C(=O)Nc2ccc(OCC3CC3)c(C(F)(F)F)c2)CC1`, the melting point lay in the range of 84 to 85 °C.

Compound `O=C1NC(=O)c2cc(Nc3ccccc3I)c(Nc3ccccc3I)cc21` showed a melting point of 108 to 110 °C. With `CC1(C)O[C@]23C[C@H]1CC[C@]2(C)CCCC3=O` the figure was 55 to 56 °C. In turn, `O=[N+]([O-])c1ccc(CN2CCCCc3sccc32)cc1` yielded a melting point of 141 to 142 °C.

As to `CC(=O)c1c(C)c(NC(=O)CC(C)(C)C)c(C)c2c1S(=O)CC2c1ccc(C(C)C)cc1` (centres undefined), the melting point was in the range of 214 to 216 °C. With `Cc1ccsc1C(=O)Nc1ccc(-n2nc(C(F)(F)F)cc2C(F)(F)F)cc1` the figure was 185 to 188 °C. The compound `Cc1nc(NC(=O)Cc2cccs2)c(Br)c(C)c1Br` returned a melting point of 154 °C. The result for `COC(=O)c1c(C)nc(C)c(C(=O)OCC2CCCO2)c1-c1ccccc1[N+](=O)[O-]` (centres undefined) reads 69 to 70 °C; that for `CCOC(=O)c1ncc2[nH]c3ccc(C4CCCCC4)cc3c2c1C`, 191 to 193 °C.

Compound `COC(=O)c1c(C(F)(F)F)[nH]c2c(OCc3ccccc3)cc3c(c12)C(CCl)CN3C(=O)OC(C)(C)C` (centres undefined) gave a melting point of 162 °C.

As to `Cc1cc(O)c2c(ccc3nc(-c4ccco4)[nH]c32)n1`, the melting point lay in the range of 280 to 282 °C. With `CCCCCOc1ccc(CO)cc1OC(C)=O` the figure was 35 to 36 °C; with `CCOC(=O)COc1cc(Cl)c(C(=O)c2ccc([N+](=O)[O-])cc2)c(Cl)c1`, 96 to 98 °C; with `CC(NC(=O)C1CCCN1C(=O)Cc1ccccc1)C(=O)NN` (stereo not drawn) (PhAc-Pro-Ala-NHNH2; configuration not given here), 142 to 143 °C.

The compound `CC(C)c1nc(-c2ccc(/C=C/C3(O)CN4CCC3CC4)cc2)no1` (centres undefined) returned a melting point of 142 to 144 °C.

In turn, `C[C@@H](c1ccc(-c2ccc(C(=O)NC3CC3)cn2)cc1)N1CC[C@](CC(C)(C)O)(c2ccccc2)OC1=O` had a melting point of 191 to 194 °C.

`CCOc1ccccc1OC(c1ccccc1)C(O)CO` (centres undefined) registered a melting point of 68 to 70 °C. On to `N#Cc1ccccc1Cn1nnc2cc3c(cc2c1=O)OC1CCCN1C3=O` (centres undefined), for which the melting point was in the range of 257 to 260 °C. For `Cn1ccnc1CCNS(=O)(=O)c1ccccc1NS(=O)(=O)c1cccc(C(F)(F)F)c1`, the melting point was in the range of 171 to 176 °C. The result for `CSc1nccc(-c2c3cccnc3n3c(N)nccc23)n1` reads 223 to 224 °C. The result for `Cc1ccc(C(O)Cc2nc(C)c(C)nc2C)cc1` (centres undefined) reads 99 to 101 °C. The result for `COc1ccc2c(c1)CN(C(=O)OCc1ccccc1)CC(=O)N2` reads 138 °C. Compound `CC(C)(C)c1cc(C(=O)c2cccnc2)cc(C(C)(C)C)c1O` registered a melting point of 144 °C. With `Cc1cc(=O)c2ccc(N)cc2s1` the figure was 165 to 169 °C; with `COc1ccc(CNC(N)=O)cc1OC`, 172 to 173 °C; with `Cc1cc(=O)n2cccc(S)c2n1`, 240 to 241 °C. The result for `CCOC(=O)C1=Cc2cc(Cl)cc(-c3ccc(Cl)cc3)c2OC1C(F)(F)F` (centres undefined) reads 114 to 116 °C. The result for `O=c1c2cc(F)ccc2nc(CNc2ncccn2)n1-c1ccccc1Cl` reads 182 to 185 °C. Compound `N[C@@H](Cc1ccccc1)C(=O)N(C(=O)Cc1cc(F)cc(F)c1)[C@@H]1C(=O)Nc2ccccc2S[C@@H]1c1ccccc1` displayed a melting point of 115 to 120 °C. With `O=S(=O)(Nc1ccc(C(F)(F)F)nc1I)c1ccccc1` the figure was 131 °C; with `O=C(O)c1cnc2cc(O)cc(O)c2c1`, over 260 °C. With `CC(C)(C)OC(=O)N[C@@H](Cc1ccccc1)C[C@H](O)[C@H](Cc1ccccc1)N(Cc1ccccc1)Cc1ccccc1` the figure was 145 to 146 °C. The result for `Cc1cc(N(C)C(N)=O)no1` reads 146 to 147 °C; that for `O=C(Nc1ccc(-n2nc(C(F)(F)F)cc2C(F)(F)F)cc1)c1ccccc1O`, 173 to 175 °C; that for `CC(=O)OC1CC(C)(C)N(OC(=O)C=Cc2ccccc2)C(C)(C)C1`, 130 to 132 °C.

With `Cc1[nH]c(=O)c(C#N)c2c1CC(C)CC2` (centres undefined), the melting point is over 290 °C. With `COC(=O)C1(NC(=O)C2(Br)SC=C(Br)C2Br)CCCCCC1` (centres undefined) the figure was 165 to 168 °C. The compound `COc1ccc2c(c1)c(CCO)c(C)n2-c1ncnc2cc(Cl)ccc12` displayed a melting point of 148 to 150 °C. The result for `Cc1ccc2c(=O)c3cc(F)ccc3sc2c1` reads 166 to 170 °C.

`COCCN1CCN(CC2CCN(c3ccc(Cl)cc3)C2=O)CC1` (centres undefined) showed a melting point of 103 to 105 °C. With `CN(N)C(=O)c1ccc(O)c(O)c1` the figure was 202 to 205 °C; with `CCOC(=O)c1cnc2cc(F)c(F)cc2c1Cl`, 111 °C. Compound `CCOC(=O)Cn1nc2ccc(Cl)nn2c1=O` displayed a melting point of 114 to 115 °C. The result for `O=C(C=Cc1ccc(F)cc1)c1cccs1` reads 117 to 120 °C; that for `CCCCCCCCCc1ccc(C(CCCC=O)C(=O)OC)cc1` (centres undefined), 38 to 39 °C. The result for `CC(C)c1nc(-c2ccccc2)n(-c2ccc(F)cc2)c1CO` reads 186 to 188 °C; that for `O=C(O)CCCCCCCCCCC(=O)c1ccccc1`, 83 to 86 °C.

Regarding `CNc1nc(CCN2CCC(Nc3nc4ccccc4n3Cc3ccc(F)cc3)CC2)c(C)s1`, the melting point was found to be 182 °C. The result for `CCOCc1oc(-c2ccc(C(F)(F)F)cc2)cc1C(=O)OCC` reads 103 to 105 °C; that for `CC(C)(C)c1ccc(/C=C/C(=O)Nc2ccc3ocnc3c2)cc1`, 177 °C. Regarding `CN(C)C(=O)c1ccccc1[N+](=O)[O-]`, the melting point lay in the range of 74 to 76 °C. `CCn1nc(-c2nc(C#N)c(N)nc2-c2ccccc2)ccc1=O` displayed a melting point of over 250 °C. As to `Cc1ccccc1-c1ccc(C(=O)N2Cc3ccc(C(=O)NCc4csc(-c5ccc(Cl)cc5)n4)n3Cc3ccccc32)cc1C`, the melting point lay in the range of 61 to 64 °C.

For `CCOC(=O)COc1ccc(NC(=O)c2ccc(C(C)(C)C)cc2)cc1`, the melting point fell in the range of 119 to 122 °C. The result for `Cc1ccc(C2CCC(=NO)c3ccccc32)cc1` (centres undefined) reads 97 to 101 °C; that for `CCOC(=O)N1CCN(c2ncc(F)c(SC)n2)CC1`, 110 to 112 °C. The result for `Oc1cc2c(cc1O)-c1cc3cc(O)c(O)cc3nc1CC2` reads over 220 °C. The compound `CCOC(=O)C(CC)Sc1nc2c(c(=O)n(CCOC)c(=O)n2C)n1Cc1cccc(Br)c1` (centres undefined) came in with a melting point of 58 °C.

In turn, `O=C1OCc2c(c3cc(-c4ccc(OC(F)(F)F)cc4)ccc3n2Cc2ccccc2)C1=O` had a melting point of 239 to 240 °C. With `CCCN1N=C2C(=Cc3cccc(C(F)(F)F)c3)CS(=O)(=O)CC2C1c1cccc(C(F)(F)F)c1` (centres undefined) the figure was 190 to 191 °C; with `Cc1[nH]c(-c2ccccc2)nc1-c1ccc(Cl)c(Cl)c1`, 169 to 171 °C. With `Cc1nonc1-n1cc(C(=O)O)c(=O)c2cc(F)c(Cl)nc21` the figure was 242 to 247 °C; with `Cc1c([N+](=O)[O-])cnn1-c1c(Cl)cc(C(F)(F)F)cc1Cl`, 91 to 92 °C; with `CC(C)(C)C(O)(CC#CBr)C(Oc1ccc(Cl)cc1)n1cncn1` (centres undefined), 156 to 160 °C. Regarding `CN(NC(=O)OCc1ccccc1)C(=O)c1cc(OCc2ccccc2)c(OCc2ccccc2)c(CNC(=O)OC(C)(C)C)n1`, the melting point was in the range of 125 to 127 °C.

`Cc1nsc(-n2cc(C(=O)O)c(=O)c3cc(F)c(N4CCCC4)nc32)n1` gave a melting point of over 300 °C.

`CN(CCO)CC1(SSC2(CN(C)CCO)CCCCC2)CCCCC1` displayed a melting point of 65 to 70 °C.

In turn, `NC(=O)c1cccc(-c2nc3sccn3c2-c2ccnc(N[C@@H]3CCCNC3)n2)c1` showed a melting point of 202 to 205 °C. The result for `N=C(N)c1ccc(O)cc1` reads 160 °C; that for `CC1CC2C3CCC4=CC(=O)C=CC4(C)C3=CCC2(C)C1(O)C#N` (centres undefined), 241 to 248 °C; that for `CCc1ccc(OCC(=O)N(Cc2nc(-c3cccnc3)no2)C(C)C)cc1`, 87.9 to 89.4 °C. With `C[C@H]1C[C@@](O)(c2cnc(Sc3ccc4c(c3)CC(=O)N4C)s2)CCO1` the figure was 140 °C; with `CC[C@H](C)[C@H](NS(=O)(=O)c1cccc2ccccc12)C(=O)N[C@H]1CCOC1OC` (some centres undefined), 125 to 127 °C; with `O=C(NCNC(=O)c1ccccc1C(=O)C1CCCCC1)OCc1ccccc1`, 152 to 155 °C.

In turn, `CC1(C)C(=O)NC(=O)c2c1ccc1nc(Nc3c(Cl)cccc3Cl)[nH]c21` displayed a melting point of 290 to 292 °C. The compound `CC(C)(C)c1cc(Cn2c(=S)sc3ccccc32)cc(C(C)(C)C)c1O` came in with a melting point of 148 to 150 °C. `COc1cnccc1C#N` gave a melting point of 66 to 67 °C. With `Nc1cc(=O)n(CCCO)c2nc(NC3CCCCC3)ncc12` the figure was 131 to 132 °C.

Consider `Cn1nc(-c2nc(S(C)(=O)=O)c(N)nc2-c2ccccc2)ccc1=O`, for which the melting point was in the range of 231 to 233 °C. The result for `CC1(C=O)COC2(CCCCCCCCCCC2)OO1` (centres undefined) reads 88 to 89 °C; that for `COc1cc(Cc2cnc(N)nc2N)cc(Br)c1OC`, 204 to 205 °C.

Broadly, the melting point is the temperature of the solid-liquid transition.
